pKi: −log10 of the molar value. Read-outs that look alike come from different tables or passages of the source.
Experiments:
[1] = target: Mcl-1 (Homo sapiens (Human), UniProt Q07820); assay: Fluorescence polarization anisotropy (FPA) competition assay, FITC-Bak or FITC-Bim BH3 peptide; type: binding; conditions: read-out: Ki for Inhibition of Mcl-1 by FPA assay
[2] = test system: H929 human cancer cell lines; assay: Cellular viability / proliferation (Cell TiterGlo, 72 h); type: cell-based
Method in brief: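 1,000 cells/well, 10% FBS medium; compound added at 24 h, 2-fold dilutions from 50 μM top, DMSO <1% final. 72 h exposure, CellTiterGlo 30 min RT dark, luminescence read. IC50 by 4-parameter fit.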

[3] = Homo sapiens, NCI-H929, 72 h, read-out: GI50 on cellular proliferation of H929 human cancer cell lines, H929 cells, 72 h, Cell TiterGlo, 10% FBS
[4] = H929 cells, 72 h, Cell TiterGlo, 10% FBS, read-out: GI50 on cellular proliferation of H929 human cancer cell lines

Sequence of Mcl-1 (Q07820 172-327): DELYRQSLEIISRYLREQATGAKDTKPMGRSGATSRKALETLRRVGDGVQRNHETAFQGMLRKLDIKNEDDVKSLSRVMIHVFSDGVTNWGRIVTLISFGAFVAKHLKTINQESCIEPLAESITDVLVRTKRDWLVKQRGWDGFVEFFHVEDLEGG

Molecule | pKi [1] | GI50 [2, 3] [nM] | GI50 [2, 4] [nM] | GI50 ([2]; read-out: GI50 on cellular proliferation of H929 human cancer cell lines, H929 cells, 72 h, Cell TiterGlo, 10% FBS) [nM]
Cc1cc(OCCCc2c3n(c4c(-c5c(C)nn(C)c5C)c(Cl)ccc24)[C@H](C)CN(c2ccc4oc(C(=O)O)cc4c2)C3=O)cc(C)c1Cl [Example 196, (R)-5-(7-Chloro-10-(3-(4-chloro-3,5-dimethylphenoxy)propyl)-4-methyl-1-oxo-6-(1,3,5-trimethyl-1H-pyrazol-4-yl)-3,4-dihydropyrazino[1,2-a]indol-2(1H)-yl)benzofuran-2-carboxylic acid] | > 9.00 | 3400 | – | –
Cc1cc(N2C[C@@H](C)n3c(c(CCCOc4cc(C)c(Cl)c(C)c4)c4ccc(Cl)c(-c5c(C)nn(CC6CCOCC6)c5C)c43)C2=O)c2c(c1)cc(C(=O)O)n2C [Example 452, (R)-7-(7-Chloro-10-(3-(4-chloro-3,5-dimethylphenoxy)propyl)-6-(3,5-dimethyl-1-((tetrahydro-2H-pyran-4-yl)methyl)-1H-pyrazol-4-yl) 4-methyl-1-oxo-3,4-dihydropyrazino[1,2-a]indol-2(1H)-yl)-1,5-dimethyl-1H-indole-2-carboxylic acid] | 8.66 | 380 | – | –
Cc1cc(OCCCc2c3n(c4c(-c5c(C)nn(CCN(C)C)c5C)c(Cl)ccc24)[C@H](C)CN(c2cn(C)c4cc(C(=O)O)ccc24)C3=O)cc(C)c1Cl [Example 309, (R)-3-(7-chloro-10-(3-(4-chloro-3,5-dimethylphenoxy)propyl)-6-(1-(2-(dimethylamino)ethyl)-3,5-dimethyl-1H-pyrazol-4-yl)-4-methyl-1-oxo-3,4-dihydropyrazino[1,2-a]indol-2(1H)-yl)-1-methyl-1H-indole-6-carboxylic acid] | > 9.00 | 530 | – | –
Cc1cc(OCCCc2c3n(c4c(-c5c(C)nn(C)c5C)c(Cl)ccc24)[C@H](C)CN(c2cn(C)c4ccc(-c5nc[nH]n5)cc24)C3=O)cc(C)c1Cl [Example 420, (R)-7-Chloro-10-(3-(4-chloro-3,5-dimethylphenoxy)propyl)-4-methyl-2-(1-methyl-5-(1H-1,2,4-triazol-3-yl)-1H-indol-3-yl)-6-(1,3,5-trimethyl-1H-pyrazol-4-yl)-3,4-dihydropyrazino[1,2-a]indol-1(2H)-one] | 8.70 | 280 | – | –
Cc1cc(OCCCc2c3n(c4c(-c5c(C)ncnc5C)c(Cl)ccc24)[C@H](C)CN(c2nn(C)c4cccc(C(=O)O)c24)C3=O)cc(C)c1Cl [Example 273, 3-[(4R)-7-chloro-10-[3-(4-chloro-3,5-dimethyl-phenoxy)propyl]-6-(4,6-dimethylpyrimidin-5-yl)-4-methyl-1-oxo-3,4-dihydropyrazino[1,2-a]indol-2-yl]-1-methyl-indazole-4-carboxylic acid] | > 9.00 | 4100 | – | –
Cc1cc(OCCCc2c3n(c4c(-c5c(C)nn(C)c5C)c(Cl)ccc24)[C@H](C)CN(c2cn(C)c4ccc(C(=O)NN)cc24)C3=O)cc(C)c1Cl [Example 366, (R)-3-(7-Chloro-10-(3-(4-chloro-3,5-dimethylphenoxy)propyl)-4-methyl-1-oxo-6-(1,3,5-trimethyl-1H-pyrazol-4-yl)-3,4-dihydropyrazino[1,2-a]indol-2(1H)-yl)-1-methyl-1H-indole-5-carbohydrazide] | 8.54 | 440 | – | –
Cc1cc(OCCCc2c3n(c4c(-c5c(C)nn(C)c5C)c(Cl)ccc24)[C@H](C)CN(c2cn(C)c4cc(F)c(C(=O)O)cc24)C3=O)cc(C)c1Cl [Example 355, (M, R)-3-(7-Chloro-10-(3-(4-chloro-3,5-dimethylphenoxy)propyl)-4-methyl-1-oxo-6-(1,3,5-trimethyl-1H-pyrazol-4-yl)-3,4-dihydropyrazino[1,2-a]indol-2(1H)-yl)-6-fluoro-1-methyl-1H-indole-5-carboxylic acid] | 9.00 | – | 730 | –
COCCOc1ccc(N2C[C@@H](C)n3c(c(CCCOc4cc(C)c(Cl)c(C)c4)c4ccc(Cl)c(-c5c(C)nn(C)c5C)c43)C2=O)c2cc(C(=O)O)n(C)c12 [Example 323, (M, R)-4-(7-Chloro-10-(3-(4-chloro-3,5-dimethylphenoxy)propyl)-4-methyl-1-oxo-6-(1,3,5-trimethyl-1H-pyrazol-4-yl)-3,4-dihydropyrazino[1,2-a]indol-2(1H)-yl)-7-(2-methoxyethoxy)-1-methyl-1H-indole-2-carboxylic acid] | > 9.00 | – | 1500 | –
Cc1cc(OCCCc2c3n(c4c(-c5c(C)nn(C)c5C)c(Cl)ccc24)[C@H](C)CN(c2ccc(OCc4ccccc4)c4c2cc(C(=O)O)n4C)C3=O)cc(C)c1Cl [Example 299, (P, R)-7-(benzyloxy)-4-(7-chloro-10-(3-(4-chloro-3,5-dimethylphenoxy)propyl)-4-methyl-1-oxo-6-(1,3,5-trimethyl-1H-pyrazol-4-yl)-3,4-dihydropyrazino[1,2-a]indol-2(1H)-yl)-1-methyl-1H-indole-2-carboxylic acid] | 8.70 | – | 2300 | –
Cc1cc(OCCCc2c3n(c4c(-c5c(C)nn(C)c5C)c(Cl)ccc24)[C@H](C)CN(c2cccc4cc(C(=O)O)ccc24)C3=O)cc(C)c1Cl [Example 186, (R)-5-(7-Chloro-10-(3-(4-chloro-3,5-dimethylphenoxy)propyl)-4-methyl-1-oxo-6-(1,3,5-trimethyl-1H-pyrazol-4-yl)-3,4-dihydropyrazino[1,2-a]indol-2(1H)-yl)-2-naphthoic acid] | > 9.00 | < 200 | – | –
Cc1cc(N2C[C@@H](C)n3c(c(CCCOc4cc(C)c(Cl)c(C)c4)c4ccc(Cl)c(-c5c(C)ncnc5C)c43)C2=O)c2c(c1)cc(C(=O)O)n2Cc1ccccn1 [Example 296, 7-[(4R)-7-chloro-10-[3-(4-chloro-3,5-dimethyl-phenoxy)propyl]-6-(4,6-dimethylpyrimidin-5-yl)-4-methyl-1-oxo-3,4-dihydropyrazino[1,2-a]indol-2-yl]-5-methyl-1-(2-pyridylmethyl)indole-2-carboxylic acid] | > 9.00 | 240 | – | –
Cc1cc(OCCCc2c3n(c4c(-c5c(C)nn(C)c5C)c(Cl)ccc24)[C@H](C)CN(c2cccc4nn(C)c(C(=O)O)c24)C3=O)cc(C)c1Cl [Example 132, 4-[(4R)-7-chloro-10-[3-(4-chloro-3,5-dimethyl-phenoxy)propyl]-4-methyl-1-oxo-6-(1,3,5-trimethylpyrazol-4-yl)-3,4-dihydropyrazino[1,2-a]indol-2-yl]-2-methyl-indazole-3-carboxylic acid] | > 9.00 | 840 | – | –
Cc1cc(OCCCc2c3n(c4c(-c5c(C)ncnc5C)c(Cl)ccc24)[C@H](C)CN(c2cccc4c2c(C(=O)O)cn4C)C3=O)cc(C)c1Cl [Example 252, 4-[(4R)-7-chloro-10-[3-(4-chloro-3,5-dimethyl-phenoxy)propyl]-6-(4,6-dimethylpyrimidin-5-yl)-4-methyl-1-oxo-3,4-dihydropyrazino[1,2-a]indol-2-yl]-1-methyl-indole-3-carboxylic acid] | 8.89 | 2000 | – | –
COc1cnc(-c2ccc3c(c2)c(N2C[C@@H](C)n4c(c(CCCOc5cc(C)c(Cl)c(C)c5)c5ccc(Cl)c(-c6c(C)nn(C)c6C)c54)C2=O)cn3C)nc1 [Example 465, (R)-7-Chloro-10-(3-(4-chloro-3,5-dimethylphenoxy)propyl)-2-(5-(5-methoxypyrimidin-2-yl)-1-methyl-1H-indol-3-yl)-4-methyl-6-(1,3,5-trimethyl-1H-pyrazol-4-yl)-3,4-dihydropyrazino[1,2-a]indol-1(2H)-one] | 8.82 | 690 | – | –
(R)-3-(7-chloro-10-(3-(4-chloro-3,5-dimethylphenoxy)propyl)-6-(3,5-dimethyl-1-((1-methylpiperidin-4-yl)methyl)-1H-pyrazol-4-yl)-4-methyl-1-oxo-3,4-dihydropyrazino[1,2-a]indol-2(1H)-yl)-1-methyl-1H-indole-5-carboxylic acid [Example 146] | 8.40 | – | 2400 | –
COC(=O)c1ccc2c(c1)c(N1C[C@@H](C)n3c(c(CCCOc4cc(C)c(Cl)c(C)c4)c4ccc(Cl)c(-c5c(C)nn(C)c5C)c43)C1=O)cn2C (single isomer, unassigned) [Example 207] | > 9.00 | – | – | 750
Cc1cc(OCCCc2c3n(c4c(-c5c(C)nn(C)c5C)c(Cl)ccc24)[C@H](C)CN(c2cccc4cc(C(=O)O)cnc24)C3=O)cc(C)c1Cl [Example 105, (R)-8-(7-Chloro-10-(3-(4-chloro-3,5-dimethylphenoxy)propyl)-4-methyl-1-oxo-6-(1,3,5-trimethyl-1H-pyrazol-4-yl)-3,4-dihydropyrazino[1,2-a]indol-2(1H)-yl)quinoline-3-carboxylic acid] | > 9.00 | 270 | – | –
Cc1cccc(Cn2c(C(=O)O)cc3cccc(N4C[C@@H](C)n5c(c(CCCOc6cc(C)c(Cl)c(C)c6)c6ccc(Cl)c(-c7c(C)nn(C)c7C)c65)C4=O)c32)n1 [Example 381, (R)-7-(7-Chloro-10-(3-(4-chloro-3,5-dimethylphenoxy)propyl)-4-methyl-1-oxo-6-(1,3,5-trimethyl-1H-pyrazol-4-yl)-3,4-dihydropyrazino[1,2-a]indol-2(1H)-yl)-1-((6-methylpyridin-2-yl)methyl)-1H-indole-2-carboxylic acid] | 8.59 | 250 | – | –
COc1ccc(N2C[C@@H](C)n3c(c(CCCOc4cc(C)c(Cl)c(C)c4)c4ccc(Cl)c(-c5c(C)nn(C)c5C)c43)C2=O)c2c1cc(C(=O)O)n2C [Example 192, (R)-7-(7-Chloro-10-(3-(4-chloro-3,5-dimethylphenoxy)propyl)-4-methyl-1-oxo-6-(1,3,5-trimethyl-1H-pyrazol-4-yl)-3,4-dihydropyrazino[1,2-a]indol-2(1H)-yl)-4-methoxy-1-methyl-1H-indole-2-carboxylic acid] | > 9.00 | < 200 | – | –
